Measurements taken from patent US20180298024A1, “CORTISTATIN ANALOGS AND USES THEREOF” (President and Fellows of Harvard College, priority 2015, published 2018).
pIC50, pKi: −log10 of the molar value.

Tests used:
Opiate μ(OP3, MOP) = target: T1, Opiate μ(OP3, MOP) (Homo sapiens, UniProt P35372); experiment: Panlab assay, Opiate μ(OP3, MOP); assay type: binding
T1 construct: Eurofins Panlabs
Experimental: (§1) Compounds A, B, C, and D were tested in Panlab assays to evaluate potential off-target activity using standard assay kits. Methods employed in these studies have been adapted from the scientific literature to maximize reliability and reproducibility.
(§2) IC50 values were determined by a non-linear, least squares regression analysis using MathIQ™ (ID Business Solutions Ltd., UK). […] Where presented, the Hill coefficient (nH), defining the slope of the competitive binding curve, was calculated using MathIQ™.

LTK = target: T2, LTK (Homo sapiens, UniProt P29376); experiment: 33PanQinase radiometric kinase assay, LTK; assay type: biochemical
T2 construct: purchased ProQinase; host or cells: Sf9 insect cells or E. coli
Experimental: (§3) A radiometric protein kinase assay (33PanQinase Activity Assay) was used for measuring the kinase activity of the 320 protein kinases. All kinase assays were performed in 96-well FlashPlates™ from Perkin Elmer (Boston, Mass., USA) in a 50 μl reaction volume. The reaction cocktail was pipetted in 4 steps in the following order: • 1. 10 μl of non-radioactive ATP solution (in H2O) • 2. 25 μl of assay buffer/[γ-33P]-ATP mixture • 3. 5 μl of test sample in 10% DMSO • 4. 10 μl of enzyme/substrate mixture
(§4) All PKC assays (except the PKC-mu and the PKC-nu assay) additionally contained 1 mM CaCl2, 4 mM EDTA, 5 μg/ml phosphatidylserine and 1 μg/ml 1,2-dioleyl-glycerol.
(§5) The CAMKID, CAMK2A, CAMK2B, CAMK2D, CAMK4, CAMKK1, CAMKK2, DAPK2, EEF2K, MYLK, MYLK2 and MYLK3 assays additionally contained 1 μg/ml Calmodulin and 0.5 mM CaCl2). The PRKG1 and PRKG2 assays additionally contained 1 μM cGMP. The DNA-PK assay additionally contained 2.5 μg/ml DNA. […] Incorporation of 33Pi (counting of “cpm”) was determined with a microplate scintillation counter (Microbeta, Wallac). […]
(§6) For each kinase, the median value of the cpm of three wells was defined as “low control” (n=3). This value reflects unspecific binding of radioactivity to the plate in the absence of a protein kinase but in the presence of the substrate. […] The residual activity (in %) for each compounds well was calculated by using the following formula: […]

Phosphodiesterase PDE3 = target: T3, Phosphodiesterase PDE3 (Homo sapiens, UniProt Q14432); experiment: Panlab assay, Phosphodiesterase PDE3; assay type: biochemical; conditions: read-out: IC50, inhibition of Phosphodiesterase PDE3 activity
T3 construct: Eurofins Panlabs
Experimental: as §1, §2

ALK = target: T4, ALK (Homo sapiens, UniProt Q9UM73); experiment: 33PanQinase radiometric kinase assay, ALK; assay type: biochemical; conditions: in vitro, read-out: percent inhibition of ALK
T4 construct: purchased ProQinase; host or cells: Sf9 insect cells or E. coli
Experimental: as §3, §4, §5, §6

OCI-AML2 = experiment: Half-maximal growth inhibition (GI50), OCI-AML2; assay type: cell-based; conditions: Homo sapiens, 240 h, AML, M4, DNMT3A R635W, read-out: GI50 (nM), day 10
Experimental: Compounds A, B, C, D, and F were tested against various cell lines to probe their broad utility against cancer. Cortistatin A (CA) was also tested against the cell lines in a head to head fashion.

Adenosine Transporter = target: T5, Adenosine Transporter (Cavia porcellus, UniProt H0V4R7); experiment: Panlab assay, Adenosine Transporter; assay type: binding
T5 sequence (H0V4R7 1-461): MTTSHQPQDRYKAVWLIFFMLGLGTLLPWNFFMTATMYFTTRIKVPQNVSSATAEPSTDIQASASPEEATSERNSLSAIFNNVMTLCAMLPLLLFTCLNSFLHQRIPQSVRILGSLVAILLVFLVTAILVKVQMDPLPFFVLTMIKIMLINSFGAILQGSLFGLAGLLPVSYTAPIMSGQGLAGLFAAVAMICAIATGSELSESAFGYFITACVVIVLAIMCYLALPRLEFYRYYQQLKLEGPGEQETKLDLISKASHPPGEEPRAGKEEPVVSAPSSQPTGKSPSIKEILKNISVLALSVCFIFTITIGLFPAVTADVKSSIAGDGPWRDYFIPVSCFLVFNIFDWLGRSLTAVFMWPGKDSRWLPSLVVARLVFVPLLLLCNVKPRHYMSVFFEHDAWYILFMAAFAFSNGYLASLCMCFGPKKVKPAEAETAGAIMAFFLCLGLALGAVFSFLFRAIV
Experimental: as §1, with “reproducibility. Reference standards were run as an integral part of each assay to ensure the validity of the results obtained.” for “reproducibility.”
IC50 values were determined by a non-linear, least squares regression analysis using MathIQ™ (ID Business Solutions Ltd., UK). Where inhibition constants (Ki) are presented, the Ki values were calculated using the equation of Cheng and Prusoff (Cheng, Y., Prusoff, W. H., Biochem. Pharmacol. 22:3099-3108, 1973) using the observed IC50 of the tested compound, the concentration of radioligand employed in the assay, and the historical values for the KD of the ligand (obtained experimentally at Eurofins Panlabs, Inc.). Where presented, the Hill coefficient (nH), defining the slope of the competitive binding curve, was calculated using MathIQ™.

T1 sequence (P35372 whole entry): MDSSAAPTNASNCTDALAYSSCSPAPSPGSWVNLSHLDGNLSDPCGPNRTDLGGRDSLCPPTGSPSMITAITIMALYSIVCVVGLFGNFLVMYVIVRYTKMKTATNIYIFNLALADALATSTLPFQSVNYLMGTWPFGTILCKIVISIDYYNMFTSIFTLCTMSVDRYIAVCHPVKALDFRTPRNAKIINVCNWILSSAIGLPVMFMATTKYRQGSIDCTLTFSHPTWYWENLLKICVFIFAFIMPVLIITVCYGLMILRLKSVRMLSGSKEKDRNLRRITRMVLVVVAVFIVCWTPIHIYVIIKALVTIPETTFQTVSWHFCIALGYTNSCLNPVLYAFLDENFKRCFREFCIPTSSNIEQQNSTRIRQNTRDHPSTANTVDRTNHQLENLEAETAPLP
T2 sequence (P29376 17-864): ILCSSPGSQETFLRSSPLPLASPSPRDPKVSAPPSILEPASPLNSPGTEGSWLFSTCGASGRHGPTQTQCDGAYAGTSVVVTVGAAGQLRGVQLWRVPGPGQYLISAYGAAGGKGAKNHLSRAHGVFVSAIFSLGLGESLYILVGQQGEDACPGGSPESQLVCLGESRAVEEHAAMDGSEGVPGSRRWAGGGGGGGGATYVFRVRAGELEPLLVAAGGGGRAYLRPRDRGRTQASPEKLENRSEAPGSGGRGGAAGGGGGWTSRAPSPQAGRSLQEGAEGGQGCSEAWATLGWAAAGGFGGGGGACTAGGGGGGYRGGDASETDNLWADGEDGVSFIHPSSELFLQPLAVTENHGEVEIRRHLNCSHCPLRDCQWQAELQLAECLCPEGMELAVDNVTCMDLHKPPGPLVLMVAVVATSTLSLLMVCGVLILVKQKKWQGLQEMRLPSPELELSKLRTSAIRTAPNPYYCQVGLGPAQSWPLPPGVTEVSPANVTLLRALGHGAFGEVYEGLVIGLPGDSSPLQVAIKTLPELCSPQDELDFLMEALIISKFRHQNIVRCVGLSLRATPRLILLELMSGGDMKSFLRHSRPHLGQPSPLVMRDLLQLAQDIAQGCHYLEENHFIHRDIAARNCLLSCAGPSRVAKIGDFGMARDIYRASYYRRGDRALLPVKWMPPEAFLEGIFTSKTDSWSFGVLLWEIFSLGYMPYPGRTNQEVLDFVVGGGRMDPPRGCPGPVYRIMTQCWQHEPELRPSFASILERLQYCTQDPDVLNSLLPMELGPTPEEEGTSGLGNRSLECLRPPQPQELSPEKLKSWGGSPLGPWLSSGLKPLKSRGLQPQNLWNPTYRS
T3 sequence (Q14432 whole entry): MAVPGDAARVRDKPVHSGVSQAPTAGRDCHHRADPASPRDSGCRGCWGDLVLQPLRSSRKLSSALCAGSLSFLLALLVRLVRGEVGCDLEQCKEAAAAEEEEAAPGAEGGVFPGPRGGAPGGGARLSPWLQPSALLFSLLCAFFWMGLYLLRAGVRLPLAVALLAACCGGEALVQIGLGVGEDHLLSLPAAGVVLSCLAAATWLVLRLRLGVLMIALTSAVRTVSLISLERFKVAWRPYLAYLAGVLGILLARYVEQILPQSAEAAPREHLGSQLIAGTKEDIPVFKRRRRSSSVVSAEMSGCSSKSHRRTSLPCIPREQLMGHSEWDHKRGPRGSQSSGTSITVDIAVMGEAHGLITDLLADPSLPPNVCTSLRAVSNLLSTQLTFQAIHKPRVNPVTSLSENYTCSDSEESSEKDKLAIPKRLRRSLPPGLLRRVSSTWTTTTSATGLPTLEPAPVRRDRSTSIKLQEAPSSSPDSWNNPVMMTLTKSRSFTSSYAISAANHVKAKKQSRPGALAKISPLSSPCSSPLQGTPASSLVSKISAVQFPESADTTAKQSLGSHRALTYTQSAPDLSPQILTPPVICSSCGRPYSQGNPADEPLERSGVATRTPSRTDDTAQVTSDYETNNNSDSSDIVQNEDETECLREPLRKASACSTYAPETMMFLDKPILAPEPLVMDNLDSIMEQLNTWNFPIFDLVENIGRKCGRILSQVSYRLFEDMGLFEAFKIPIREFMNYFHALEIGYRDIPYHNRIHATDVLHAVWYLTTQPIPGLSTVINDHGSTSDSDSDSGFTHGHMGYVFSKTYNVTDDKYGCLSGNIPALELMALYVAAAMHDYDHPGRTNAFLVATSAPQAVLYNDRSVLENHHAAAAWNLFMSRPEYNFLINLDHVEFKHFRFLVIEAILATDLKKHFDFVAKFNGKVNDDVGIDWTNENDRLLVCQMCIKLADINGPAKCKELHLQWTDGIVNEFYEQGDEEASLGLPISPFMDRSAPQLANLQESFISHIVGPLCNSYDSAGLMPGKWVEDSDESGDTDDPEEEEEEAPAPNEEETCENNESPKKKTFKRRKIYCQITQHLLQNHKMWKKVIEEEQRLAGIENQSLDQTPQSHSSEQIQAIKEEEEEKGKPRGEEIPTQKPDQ
T4 sequence (Q9UM73 19-1620): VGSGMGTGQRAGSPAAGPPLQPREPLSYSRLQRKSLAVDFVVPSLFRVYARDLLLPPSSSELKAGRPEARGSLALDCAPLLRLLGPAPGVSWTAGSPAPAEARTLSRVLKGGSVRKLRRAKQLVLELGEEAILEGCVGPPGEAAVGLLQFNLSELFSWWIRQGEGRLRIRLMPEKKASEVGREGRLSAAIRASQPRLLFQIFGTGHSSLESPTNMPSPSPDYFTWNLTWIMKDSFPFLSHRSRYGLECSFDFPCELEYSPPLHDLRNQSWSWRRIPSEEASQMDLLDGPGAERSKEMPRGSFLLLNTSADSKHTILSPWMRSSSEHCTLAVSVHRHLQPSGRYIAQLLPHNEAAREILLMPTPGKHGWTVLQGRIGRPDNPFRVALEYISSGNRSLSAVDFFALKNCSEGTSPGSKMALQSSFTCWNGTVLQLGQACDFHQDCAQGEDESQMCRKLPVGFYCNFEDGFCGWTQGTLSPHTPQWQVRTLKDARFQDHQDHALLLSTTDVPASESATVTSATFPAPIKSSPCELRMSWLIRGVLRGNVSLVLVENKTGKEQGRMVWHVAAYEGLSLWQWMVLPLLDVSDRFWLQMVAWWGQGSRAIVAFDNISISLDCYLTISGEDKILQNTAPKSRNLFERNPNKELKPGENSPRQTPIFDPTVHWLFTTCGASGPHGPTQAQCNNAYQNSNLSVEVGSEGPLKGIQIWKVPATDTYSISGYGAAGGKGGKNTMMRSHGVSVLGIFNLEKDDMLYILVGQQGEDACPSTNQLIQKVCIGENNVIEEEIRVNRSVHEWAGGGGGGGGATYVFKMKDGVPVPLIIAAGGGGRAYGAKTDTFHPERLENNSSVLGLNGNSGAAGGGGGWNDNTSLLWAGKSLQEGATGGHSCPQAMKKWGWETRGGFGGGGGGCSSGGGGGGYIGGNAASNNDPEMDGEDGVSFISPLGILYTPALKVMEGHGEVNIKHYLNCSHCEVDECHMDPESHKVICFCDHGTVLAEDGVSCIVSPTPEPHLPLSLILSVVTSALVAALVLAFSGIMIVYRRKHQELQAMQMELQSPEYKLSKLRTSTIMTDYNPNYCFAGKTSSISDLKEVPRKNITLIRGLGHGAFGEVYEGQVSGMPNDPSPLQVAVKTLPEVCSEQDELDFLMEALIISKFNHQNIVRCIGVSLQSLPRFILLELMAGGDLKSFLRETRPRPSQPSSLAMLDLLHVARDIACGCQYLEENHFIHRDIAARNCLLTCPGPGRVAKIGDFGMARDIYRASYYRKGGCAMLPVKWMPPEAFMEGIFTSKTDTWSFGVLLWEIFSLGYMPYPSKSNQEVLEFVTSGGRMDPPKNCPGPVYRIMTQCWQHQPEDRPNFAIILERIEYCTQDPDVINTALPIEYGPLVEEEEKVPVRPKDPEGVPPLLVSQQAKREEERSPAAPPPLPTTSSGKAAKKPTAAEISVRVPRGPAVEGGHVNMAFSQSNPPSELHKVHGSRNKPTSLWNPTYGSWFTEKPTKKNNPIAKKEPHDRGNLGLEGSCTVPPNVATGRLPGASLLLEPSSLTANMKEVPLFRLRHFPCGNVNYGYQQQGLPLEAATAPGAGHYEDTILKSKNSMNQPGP

## C[C@]12CC=C3C=C4CC[C@@H](O)C[C@]45CC[C@]3(O5)[C@@H]1CC[C@@H]2c1ccc2ccncc2c1 [Compound A, (3S,3aR,9R,10aR,12aS,12bR)-3-(isoquinolin-7-yl)-3a-methyl-1,2,3,3a,4,7,8,9,10,11,12,12b-dodecahydro-10a,12a-epoxybenzo[4,5]cyclohepta[1,2-e]inden-9-ol]
Opiate μ(OP3, MOP)
  pIC50: 5.24
  nH (Hill coefficient), Opiate μ(OP3, MOP): 0.90
Opiate μ(OP3, MOP); Cheng and Prusoff
  pKi: 5.63
LTK; 1 μM, 2 replicates, read-out: average percent inhibition of LTK
  inhibition at 1 µM: > 50%
LTK; up to 10 μM
  inhibition of LTK upon retesting: not inhibited
Phosphodiesterase PDE3
  pIC50: 5.49
ALK
  inhibition at 1 µM: < 10%
OCI-AML2
  GI50: 4 nM
Adenosine Transporter
  pIC50: 5.44
  nH (Hill coefficient), Adenosine Transporter: 1.30
Adenosine Transporter; Cheng and Prusoff
  pKi: 5.91
